Data published in patent publication US8192962B2, “Processes for detecting toxic substances” (Daikin Industries, Ltd., priority 2001, dated 2012).

Tested on: Genes belonging to other category
Test: DNA chip mRNA expression in yeast, genes belonging to other category (Table 9)
Assay type: cell-based, Saccharomyces cerevisiae S288C
Outline: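 First, S288C yeast grown in YPD at 25° C. are dosed in log phase with one toxicant (growth-inhibiting, not lethal) for 2 h. Next, total RNA is extracted and poly(A) mRNA isolated and reverse-transcribed with Cy3/Cy5-dUTP. Finally, whole-genome chip fluorescence is read relative to unexposed cells.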

Question: Which results are given for `S=C([S-])NCCNC(=S)[S-].[Zn+2]` [(11), zinc N,N′-ethylenebis(dithiocarbamate)]?
Answer: The level of expressed mRNA in the presence of chemical substance/The level of expressed mRNA in the absence of chemical substance (yeast gene YNL083W): 0.9; The level of expressed mRNA in the presence of chemical substance/The level of expressed mRNA in the absence of chemical substance (yeast gene YNL093W): 1.6; The level of expressed mRNA in the presence of chemical substance/The level of expressed mRNA in the absence of chemical substance (yeast gene YNL135C): 0.7; The level of expressed mRNA in the presence of chemical substance/The level of expressed mRNA in the absence of chemical substance (yeast gene YNL147W): 1.2; The level of expressed mRNA in the presence of chemical substance/The level of expressed mRNA in the absence of chemical substance (yeast gene YNL196C): 0.7; The level of expressed mRNA in the presence of chemical substance/The level of expressed mRNA in the absence of chemical substance (yeast gene YNL333W): 2.0; The level of expressed mRNA in the presence of chemical substance/The level of expressed mRNA in the absence of chemical substance (yeast gene YNR010W): 1.4; The level of expressed mRNA in the presence of chemical substance/The level of expressed mRNA in the absence of chemical substance (yeast gene YNR030W): 1.2; The level of expressed mRNA in the presence of chemical substance/The level of expressed mRNA in the absence of chemical substance (yeast gene YNR034W): 1.3; The level of expressed mRNA in the presence of chemical substance/The level of expressed mRNA in the absence of chemical substance (yeast gene YNR035C): 1.5; The level of expressed mRNA in the presence of chemical substance/The level of expressed mRNA in the absence of chemical substance (yeast gene YNR047W): 0.6; The level of expressed mRNA in the presence of chemical substance/The level of expressed mRNA in the absence of chemical substance (yeast gene YNR069C): 2.5; The level of expressed mRNA in the presence of chemical substance/The level of expressed mRNA in the absence of chemical substance (yeast gene YOL005C): 1.6; The level of expressed mRNA in the presence of chemical substance/The level of expressed mRNA in the absence of chemical substance (yeast gene YOL013C): 1.4; The level of expressed mRNA in the presence of chemical substance/The level of expressed mRNA in the absence of chemical substance (yeast gene YOL164W): 1.0; The level of expressed mRNA in the presence of chemical substance/The level of expressed mRNA in the absence of chemical substance (yeast gene YOR003W): 0.7; The level of expressed mRNA in the presence of chemical substance/The level of expressed mRNA in the absence of chemical substance (yeast gene YOR023C): 0.9; The level of expressed mRNA in the presence of chemical substance/The level of expressed mRNA in the absence of chemical substance (yeast gene YOR036W): 1.3; The level of expressed mRNA in the presence of chemical substance/The level of expressed mRNA in the absence of chemical substance (yeast gene YOR058C): 1.4; The level of expressed mRNA in the presence of chemical substance/The level of expressed mRNA in the absence of chemical substance (yeast gene YOR117W): 1.2; The level of expressed mRNA in the presence of chemical substance/The level of expressed mRNA in the absence of chemical substance (yeast gene YOR124C): 1.2; The level of expressed mRNA in the presence of chemical substance/The level of expressed mRNA in the absence of chemical substance (yeast gene YOR132W): 1.3; The level of expressed mRNA in the presence of chemical substance/The level of expressed mRNA in the absence of chemical substance (yeast gene YOR148C): 1.3; The level of expressed mRNA in the presence of chemical substance/The level of expressed mRNA in the absence of chemical substance (yeast gene YOR157C): 1.6; The level of expressed mRNA in the presence of chemical substance/The level of expressed mRNA in the absence of chemical substance (yeast gene YOR181W): 1.0; The level of expressed mRNA in the presence of chemical substance/The level of expressed mRNA in the absence of chemical substance (yeast gene YOR185C): 1.2; The level of expressed mRNA in the presence of chemical substance/The level of expressed mRNA in the absence of chemical substance (yeast gene YOR198C): 1.4; The level of expressed mRNA in the presence of chemical substance/The level of expressed mRNA in the absence of chemical substance (yeast gene YOR230W): 1.6; The level of expressed mRNA in the presence of chemical substance/The level of expressed mRNA in the absence of chemical substance (yeast gene YOR259C): 1.0; The level of expressed mRNA in the presence of chemical substance/The level of expressed mRNA in the absence of chemical substance (yeast gene YOR261C): 2.1; The level of expressed mRNA in the presence of chemical substance/The level of expressed mRNA in the absence of chemical substance (yeast gene YOR265W): 1.3; The level of expressed mRNA in the presence of chemical substance/The level of expressed mRNA in the absence of chemical substance (yeast gene YOR288C): 1.4; The level of expressed mRNA in the presence of chemical substance/The level of expressed mRNA in the absence of chemical substance (yeast gene YOR298W): 0.1; The level of expressed mRNA in the presence of chemical substance/The level of expressed mRNA in the absence of chemical substance (yeast gene YOR312C): 0.8; The level of expressed mRNA in the presence of chemical substance/The level of expressed mRNA in the absence of chemical substance (yeast gene YOR355W): 1.2; The level of expressed mRNA in the presence of chemical substance/The level of expressed mRNA in the absence of chemical substance (yeast gene YOR383C): 1.4; The level of expressed mRNA in the presence of chemical substance/The level of expressed mRNA in the absence of chemical substance (yeast gene YPL089C): 0.9; The level of expressed mRNA in the presence of chemical substance/The level of expressed mRNA in the absence of chemical substance (yeast gene YPL105C): 0.6; The level of expressed mRNA in the presence of chemical substance/The level of expressed mRNA in the absence of chemical substance (yeast gene YPL109C): −0.2; The level of expressed mRNA in the presence of chemical substance/The level of expressed mRNA in the absence of chemical substance (yeast gene YPL149W): 1.2; The level of expressed mRNA in the presence of chemical substance/The level of expressed mRNA in the absence of chemical substance (yeast gene YPL154C): 1.8; The level of expressed mRNA in the presence of chemical substance/The level of expressed mRNA in the absence of chemical substance (yeast gene YPL177C): 1.4; The level of expressed mRNA in the presence of chemical substance/The level of expressed mRNA in the absence of chemical substance (yeast gene YPL230W): 3.1; The level of expressed mRNA in the presence of chemical substance/The level of expressed mRNA in the absence of chemical substance (yeast gene YPR028W): 1.4; The level of expressed mRNA in the presence of chemical substance/The level of expressed mRNA in the absence of chemical substance (yeast gene YPR066W): 0.9; The level of expressed mRNA in the presence of chemical substance/The level of expressed mRNA in the absence of chemical substance (yeast gene YPR081C): 0.9; The level of expressed mRNA in the presence of chemical substance/The level of expressed mRNA in the absence of chemical substance (yeast gene YPR103W): 0.9; The level of expressed mRNA in the presence of chemical substance/The level of expressed mRNA in the absence of chemical substance (yeast gene YPR108W): 1.8; The level of expressed mRNA in the presence of chemical substance/The level of expressed mRNA in the absence of chemical substance (yeast gene YPR155C): 0.9; The level of expressed mRNA in the presence of chemical substance/The level of expressed mRNA in the absence of chemical substance (yeast gene YPR185W): 0.9
